Values quoted from earlier work as cited in paper PMC11682675 (Infection and Drug Resistance, 2024).
Residues, ends and D or L forms follow the SMILES beside them.

Settings: reported by some studies

CL of PMB in ECMO patients: 1.16 L/h
Vd of PMB in ECMO patients: 19.7 L
Compound: CC[C@H](C)CCCCC(=O)N[C@@H](CCN)C(=O)N[C@H](C(=O)N[C@@H](CCN)C(=O)N[C@H]1CCNC(=O)[C@H]([C@@H](C)O)NC(=O)[C@H](CCN)NC(=O)[C@H](CCN)NC(=O)[C@H](CC(C)C)NC(=O)[C@@H](Cc2ccccc2)NC(=O)[C@H](CCN)NC1=O)[C@@H](C)O [PMB, Polymyxin B] (HELM PEPTIDE1{[CC[C@H](C)CCCCC(=O)[*:2]].[Dab].T.[Dab].[Dab].[Dab].[dF].L.[Dab].[Dab].T}$PEPTIDE1,PEPTIDE1,5:R3-11:R2$$$V2.0)
